Measurements reported in ChEMBL document CHEMBL1124292, “Synthesis and evaluation of neoplastic cell growth inhibition of 1-N-alkylamide analogues of glycero-3-phosphocholine” (1988).
pIC50: −log10 of the molar value.

test system: HL-60; assay: Inhibitory dose against HL60 human leukemic cells after incubation for 48 h; type: functional; details: HL-60, 48 h, read-out: ID50 (the source's name)

CCCCCCCCCCCCCCCCCC(=O)NCC(COP(=O)([O-])OCC[N+](C)(C)C)OC (stereo unspecified) and CCCCCCCCCCCCCCCC(=O)NCC(COP(=O)([O-])OCC[N+](C)(C)C)OC (stereo unspecified) are within 0.2 log units of each other in pIC50: 5.61 for the first, 5.48 for the second.

CCCCCCCCCCCCCCCCCC(=O)NCC(COP(=O)([O-])OCC[N+](C)(C)C)OCC (stereo unspecified) and CCCCCCCCCCCCCCCC(=O)NCC(COP(=O)([O-])OCC[N+](C)(C)C)OCC (stereo unspecified) are within 0.2 log units of each other in pIC50: 5.79 for the first, 5.63 for the second.

Going from CCCCCCCCCCCCCCCCCCOCC(COP(=O)([O-])OCC[N+](C)(C)C)OC (racemic) [EDELFOSINE] to CCCCCCCCCCCCCCCC(=O)NCC(O)COP(=O)([O-])OCC[N+](C)(C)C (stereo unspecified), the pIC50 falls from 5.61 to less than 5.00.
